Measured values as given in PMC8587750, “Structural Optimization and Biological Activity of Pyrazole Derivatives: Virtual Computational Analysis, Recovery Assay and 3D Culture Model as Potential Predictive Tools of Effectiveness against Trypanosoma cruzi” (Molecules, 2021).
Entries after “also recorded” stand apart in the source; their conditions may differ. Read-outs that look alike come from different tables or passages of the source.

Legend:
[1] = test system: trypomastigote forms of T. cruzi; design: method as in PMID 31434040; details: read-out: IC50 against trypomastigotes; cited from earlier work
[2] = test system: T. cruzi cysteine protease; test: Cysteine protease activity of trypomastigote total protein extracts (Z-FR-AMC); type: biochemical, Trypanosoma cruzi; details: 300 µM, Z-FR-AMC 60 µM, pH 5.0, 37 °C
Experimental: Total protein extract from trypomastigotes (Dm28c-Luc; 10^8 parasites/mL) were extracted with lysis buffer. Cysteine protease activity of extracts (5 μg) was measured in acetate buffer using fluorogenic peptide substrate (60 μM of 7-Amino-4-Methylcoumarin hydrochloride, CBZ-L-Phenylalanyl-L-Arginine amide (Z-FR-AMC). Total protein extracts were incubated for 45 min at room temperature with the compounds and changes in relative fluorescence units monitored using a SpectraMaxM2e spectrophotometer (Molecular Devices, Sunnyvale, CA, USA) for 1 h with excitation at 370 nm and emission at 460 nm. The inhibition assays were performed by coincubation with different compounds (3g, 3j, and 3m) and concentrations (300–11.11 µM) and transepoxysuccinyl-L-leucylamido-(4-guanidino) butane (E-64). Additional control was carried out with DMSO (≤1%). Enzymatic activity was expressed in µmol/min/mg of protein and the residual activity in percentage.
Figure 6 Inhibition of T. cruzi cysteine protease activity. Total protein extracts of trypomastigotes (5 µg), was incubated at different concentrations (300–11.11 µM) of compounds E64 (black circle), 3g (black triangle), 3j (black square) and 3m (white circle) in enzyme activation buffer pH 5.0, at 37 °C. Enzyme activity was measured using a specific fluorogenic peptide substrate Z-FR-AMC (60 µM). Results are presented as percentage of inhibition of enzyme activity (%) and represent the mean and standard deviation (±) of three independent experiments.

[3] = test system: intracellular amastigotes of T. cruzi; test: Activity against intracellular amastigotes in infected Vero cells (Dm28c-Luc, 72 h); type: cell-based, Trypanosoma cruzi; details: for IC90: read-out: Trypanocidal Activity Intracellular Amastigotes IC90
From the text: (§1) T. cruzi Dm28c clone genetically modified to express luciferase, kindly provided by Dr. Cristina Henriques from Oswaldo Cruz Institute–Fiocruz, was used in the drug assays. Trypomastigotes were harvested from T. cruzi-infected Vero cultures supernatants at 4th days post-infection (dpi) and used in the phenotypic screening assay. For intracellular amastigotes assays, Vero cells (2D and 3D cultures) were infected at a ratio of 10:1 parasites/host cells.
The effect of the pyrazole derivatives against intracellular amastigotes was also evaluated after 72 h treatment (37 °C) with compound concentrations ranging from 0.04–100 µM [13]. Parasite viability, measured by luminescent signal, was determined after luciferin (300 µg/mL) addition. IC50 and IC90 values were calculated by linear regression. Selectivity index (SI) was calculated as the ratio of the CC50 to IC50 values. The non-toxic concentration of DMSO (less than 1% v/v) was used in all assays. A minimum of three independent assays was carried out in duplicate.

[4] = test system: T. cruzi (Dm28c-Luc) in Vero cells; test: Reversibility (washout) assay, parasite recrudescence in infected Vero cells; type: cell-based, Trypanosoma cruzi; details: for decrease of parasite load compared to untreated infected Vero cell cultures: 72 h treatment at IC90, washout, 72 h without drug
Experimental: To address the question of whether the treatment with 3g, 3j, and 3m leads to parasite clearance, an intracellular T. cruzi washout assay was performed as a strategy for monitoring the parasite recrudescence. In this approach, cultures of infected Vero cells (Dm28c-Luc) were treated for 72 h at IC90 and 50 µM (2 to 5-fold de IC90) concentrations of the promising compounds 3g, 3j, and 3m and, after washing the cell monolayers, the cultures were kept for another 72 h without drug treatment. Both cell monolayers and their supernatants were evaluated for the presence of viable parasites after luciferin addition. All derivatives analyzed relapsed at the IC90 concentration (Figure 3). However, treatment with 3g, 3j, and 3m led to a significant reduction in the parasite load, reaching a decrease of 4.5-, 1.9-, and 8.7-fold, respectively, when compared to untreated infected Vero cells cultures (Figure 3). The emergence of trypomastigotes in the supernatant, at IC90 concentration, was observed three days after removal of drug pressure, but with a significant reduction in viable parasites compared to untreated cultures (Figure 3). Parasite recrudescence was not seen in 100 µM Bz treatment (Figure 3).
The washout assay, adapted from, was performed to evaluate the promising compounds efficacy. […] After successive washing, the cultures were maintained for an additional 72 h at 37 °C in RPMI 1640 medium supplemented with 10% SFB in the absence of the compound. Luciferin (300 µg/mL) was added separately to the culture supernatant, previously removed, and the cell monolayer. The luminescent signal was read on the Glomax-Multi Detection reader (Promega Corporation, Madison, WI, USA). Bz (100 µM) and DMSO (≤1%) were used as positive and negative reaction controls, respectively.

[5] = test system: trypomastigote forms of T. cruzi; test: Phenotypic screening against T. cruzi trypomastigotes (Dm28c-Luc, luciferase viability, 24 h); type: cell-based, Trypanosoma cruzi; details: for Trypomastigotes SI: CC50 of Vero cells/IC50 of trypomastigote; for IC50 / IC90: Trypanosoma cruzi, Dm28c-Luc, 24 h; for IC50: read-out: Trypanocidal Activity Trypomastigotes IC50; for IC90: read-out: Trypanocidal Activity Trypomastigotes IC90
From the text: as §1
The phenotypic compound screening was performed using transgenic T. cruzi parasites expressing the firefly luciferase (Dm28c-Luc). Trypomastigotes (1 × 10^6 parasites/well) were treated for 24 h at 37 °C with the pyrazole derivatives and Bz (0.04–100 μM), followed by incubation with luciferin substrate (300 µg/mL) to determine parasite viability through luciferase activity. The concentration that reduces the number of viable parasites by 50% (IC50) or 90% (IC90) was calculated by linear regression. The luminescent signal was read on a Glomax-Multi Detection plate reader (Promega Corporation, Madison, WI, EUA)). At least three independent assays were performed in duplicate.

[6] = Cytotoxicity in vitro assay (ATP, CellTiter Glo, 72 h); type: cell-based; details: African green monkey, Vero cells
Experimental: Vero cells, obtained from the Rio de Janeiro Cell Bank (BCRJ code 0245), were cultured in RPMI-1640 supplemented with 10% fetal bovine serum (FBS) and 1 mM L-glutamine, as previously described. Vero cells were used for drug screening assays and to obtain trypomastigote forms of T. cruzi.
Vero cells were used as a cellular model to analyze the toxic effect of pyrazole derivatives, series 1(a–l), 2(a–l), 3(a–n), 4(a–c), and 5(a–c), and Benznidazole (Bz) on mammalian cells. Briefly, the cells, plated on 96-well white opaque microplate (1.5 × 10^4 cells/well), were treated for 72 h at 37 °C with a wide range concentration (500–1.95 µM) of the pyrazole derivatives. The cell viability was determined by measuring ATP levels using the CellTiter Glo Kit (Promega Corporation, Madison, WI, EUA) followed by reading the luminescent signal on the Glomax-Multi Detection plate reader (Promega Corporation, Madison, WI, EUA)). All treatments and controls were performed at a low concentration of DMSO (≤1%). The 50% cytotoxic concentration values (CC50; the concentration of the compound that reduces 50% of the cell viability) were estimated by linear regression analysis. Three independent assays were performed in duplicate.

[7] = test system: intracellular parasites in T. cruzi-infected microtissue; test: 3D-microtissue-based phenotypic screening (T. cruzi-infected Vero spheroids); type: cell-based, Trypanosoma cruzi; details: 72 h treatment; for viability of intracellular parasites in microtissue, luminescence intensity (ALU): Bz 100 µM
Experimental: Vero cells were seeded at a density of 2 × 10^5 cells/well in a 96-well U-bottom plate previously coated with agarose (1%). The 3D cultures, adapted from, were cultivated for 4 days in RPMI 1640 medium supplemented with 10% FBS and L-glutamine for complete 3D microtissue formation. The 3D culture model was used as a tool to evaluate the effectiveness of promising derivatives in eliminating intracellular parasites in the microtissue.
The 3D-microtissue-based phenotypic screening was performed with the promising pyrazole derivatives. […] At the end of the treatment, the 3D cultures supernatants were removed, and luciferin (300 μg/mL) was added to the spheroids. The luminescent signal was read on the Glomax-Multi Detection reader (Promega Corporation, Madison, WI, USA). Bz (100 µM) and DMSO (≤1%) were used as positive and negative control, respectively. The IC50 value was calculated by linear regression. At least three independent assays were performed in quadruplicate.

[8] = test system: T. cruzi-infected cardiac microtissue; design: method as in PMID 32564978; details: 5 nM; cited from earlier work
[9] = Trypanosoma cruzi, Vero, negative log of the IC50 value in molar, read-out: Intracellular Amastigotes pIC50 (converted)
[10] = Trypanosoma cruzi, Vero cells infected with Dm28c-Luc, 72 h

Molecule: 5-amino-1-aryl-4-(4,5-dihydro-1H-imidazol-2-yl)-1H-pyrazole [hit compound]
- IC50 [1]: 9.5 ± 1.2 µM

Molecule: Clc1ccc(-n2cc(C3=NCCN3)cn2)cc1 [Compound 3g, 1-(4-chlorophenyl)-4-(4,5-dihydro-1H-imidazol-2-yl)-1H-pyrazole]
- maximum inhibition of cysteine protease enzymatic activity [2]: 26%
- IC50 ([3]; Trypanosoma cruzi, Vero, 72 h, Vero cells infected with Dm28c-Luc, 72 h, read-out: Trypanocidal Activity Intracellular Amastigotes IC50): < 10 µM
- IC50 [3, 9]: 6.03 µM
- IC90 [3, 10]: 26.1 ± 14.3 µM
- IC50 ([3]; Vero cells infected with Dm28c-Luc, 72 h, read-out: Trypanocidal Activity Intracellular Amastigotes IC50): 6.09 ± 0.52 µM
- decrease of parasite load compared to untreated infected Vero cell cultures [4]: 4.5 fold
- Trypomastigotes SI [5]: 4.27
- IC50 [5]: 64.6 ± 1.56 µM
- IC90 [5]: > 100 µM
- CC50 at 72 h [6]: 277 ± 15.8 µM
- viability of intracellular parasites in microtissue, luminescence intensity (ALU) [7]: 36,130 ± 5764 ALU

Molecule: Brc1ccc(-n2cc(C3=NCCN3)cn2)cc1 [Compound 3j, 1-(4-bromophenyl)-4-(4,5-dihydro-1H-imidazol-2-yl)-1H-pyrazole]
- maximum inhibition of cysteine protease enzymatic activity [2]: 26%
- IC50 [3, 9]: 2.75 µM
- IC90 [3, 10]: 9.67 ± 0.3 µM
- decrease of parasite load compared to untreated infected Vero cell cultures [4]: 1.9 fold
- Trypomastigotes SI [5]: 5.36
- IC50 [5]: 57.7 ± 3.14 µM
- IC90 [5]: 95.3 ± 5.43 µM
- CC50 at 72 h [6]: 309 ± 34.3 µM
- viability of intracellular parasites in microtissue, luminescence intensity (ALU) [7]: 39,001 ± 9952 ALU

Molecule: Cc1ccc(-n2cc(C3=NCCN3)cn2)cc1Cl [Compound 3m, 1-(3-chloro-4-methylphenyl)-4-(4,5-dihydro-1H-imidazol-2-yl)-1H-pyrazole]
- maximum inhibition of cysteine protease enzymatic activity [2]: 26%
- IC50 [3, 9]: 3.55 µM
- IC90 [3, 10]: 21.4 ± 1.25 µM
- fold increase of activity against intracellular amastigotes versus hit compound ([3]; compared to hit compound): 3.8 fold
- trypanocidal activity fold higher than 3e ([3]; intracellular amastigotes): 21 fold
- parasite recrudescence / efficacy ([4]; 50 µM (2 times IC90), 72 h after washout): without parasitism recrudescence; also recorded: same activity profile as 100 µM Bz
- decrease of parasite load compared to untreated infected Vero cell cultures [4]: 8.7 fold
- Trypomastigotes SI [5]: 4.64
- IC50 [5]: 34.5 ± 8.32 µM
- IC90 [5]: > 100 µM
- CC50 at 72 h [6]: 161 ± 16.1 µM
- reduction of microtissue infection [7]: 93%
- viability of intracellular parasites in microtissue, luminescence intensity (ALU) [7]: 12,683 ± 3976 ALU

Molecule: CC[C@@H]([C@H](C)O)n1ncn(-c2ccc(N3CCN(c4ccc(OC[C@@H]5CO[C@@](Cn6cncn6)(c6ccc(F)cc6F)C5)cc4)CC3)cc2)c1=O [Posaconazole, posaconazole]
- reduction of parasite load [8]: 50%
